6 compounds from patent publication US10093713B2, “GIP-GLP-1 dual agonist compounds and methods” (priority 2013, dated 2018) can be followed below.

pEC50: −log10 of the molar value. Read-outs that look alike come from different tables or passages of the source. *1 amine or outer side, *2 acyl side, *3 side chain or, on linkers, in order; H or OH if unused. Where a SMILES comes first, the peptide text is derived from it. Side-chain parts run from the residue outwards. [ ]: non-standard residue; d: D form. The star is where a group is joined. C18 diacid = O=C(O)CCCCCCCCCCCCCCCCC(=O)*; γGlu = O=C(O)[C@H](CCC(=O)[*:2])N[*:1]; AEEA = NCCOCCOCC(=O)O; Aib = CC(C)(N)C(=O)O

One assay addresses T1, human GLP-1 R (Homo sapiens, UniProt P43220).
T1 construct: expressed in transfected cells
Briefly: Human GLP-1 receptor (GLP-1 R) activity assay, cAMP induction (AlphaScreen) in HEK293 cells. The assay is classed as cell-based. As to the method: (§1) Human GIP Receptor (GIP R) and GLP-1 Receptor (GLP-1 R) Activity Assay
(§2) In vitro effects of peptide conjugates of the invention were assessed by measuring the induction of cAMP following stimulation of the respective receptor by GIP, GLP1 or analogues of these, as outlined in the invention, using the AlphaSceen® cAMP kit from Perkin-Elmer according to instructions. Briefly, HEK293 cells expressing the human GIP R or GLP-1 R (stable cell lines generated through transfection of the cDNA for human GIP R or GLP-1 and selection of stable clones) were seeded at 30,000 cells/well in 96-well microtiter plates coated with 0.01% poly-L-lysine, and grown for 1 day in culture in 200 μl growth medium (DMEM, 10% FCS, Penicillin (100 IU/ml), Streptomycin (100 μg/ml)). On the day of analysis, growth medium was removed and the cells were washed once with […] Tyrode's buffer (Tyrode's Salts (9.6 g/l), 10 mM HEPES, pH 7.4). […] The Assay buffer was removed and cells are lysed in 80 μl Lysis buffer (0.1% w/v BSA, 5 mM HEPES, 0.3% v/v Tween-20) per well. From each well 10 μl lysed cells was transferred to a 384-well plate and mixed with 15 μl bead-mix (1 Unit/15 μl anti-cAMP Acceptor Beads, 1 Unit/15 μl Donor Beads, and 1 Unit/15 μl Biotinylated cAMP in Assay Buffer). The plates were mixed and incubated in the dark for an hour at room temperature before measuring using an Envision™ plate reader (Perkin-Elmer).
(§3) The resulting cAMP curves were plotted as absolute cAMP concentrations (nM) over log (test compound concentration) and analyzed using the curve fitting program XLfit.
(§4) Parameters calculated to describe both the potency as well as the agonistic activity of each test compound on the receptors were:
(§5) EC50, a concentration resulting in a half-maximal elevation of cAMP levels, reflecting the potency of the test compound.

The next assay addresses T2, human GIP R (Homo sapiens, UniProt P48546).
T2 construct: expressed in transfected cells
T2 sequence (P48546 22-466): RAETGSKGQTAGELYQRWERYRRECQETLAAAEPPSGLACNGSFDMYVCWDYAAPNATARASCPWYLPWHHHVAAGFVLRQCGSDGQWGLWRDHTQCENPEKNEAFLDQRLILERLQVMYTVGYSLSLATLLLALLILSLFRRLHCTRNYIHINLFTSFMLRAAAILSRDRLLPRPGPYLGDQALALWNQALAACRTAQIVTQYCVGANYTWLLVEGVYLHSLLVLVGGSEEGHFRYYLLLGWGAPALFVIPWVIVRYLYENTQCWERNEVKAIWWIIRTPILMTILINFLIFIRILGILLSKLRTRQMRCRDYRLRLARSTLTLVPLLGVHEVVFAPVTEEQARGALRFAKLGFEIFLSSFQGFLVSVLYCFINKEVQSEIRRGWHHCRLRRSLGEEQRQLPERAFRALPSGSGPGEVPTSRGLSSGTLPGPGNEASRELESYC
Briefly: Human GIP receptor (GIP R) activity assay, cAMP induction (AlphaScreen) in HEK293 cells. Particulars: read-out: hGIP-R cAMP EC50 average value. The format is cell-based. The method, then:
as §1, §2, §3, §4, §5
(In general: Alpha assays give light when donor and acceptor beads are brought close together.)

[1] abbreviates: Table 2, HEK293 cells expressing human GLP-1 R, read-out: hGLP1-R cAMP EC50 average value.
Setting [2] is: Table 2a, secondary assay study, read-out: hGLP1-R cAMP EC50 average value.
Setting [3] is: Table 2, HEK293 cells expressing human GIP R.
Setting [4] is: Table 2a, secondary assay study.
Where [5] appears, read: Table 3, most comprehensive data.
Where [6] appears, read: Table 3, most comprehensive data, read-out: hGLP-1-R cAMP EC50 average value.

T1 sequence (P43220 24-463): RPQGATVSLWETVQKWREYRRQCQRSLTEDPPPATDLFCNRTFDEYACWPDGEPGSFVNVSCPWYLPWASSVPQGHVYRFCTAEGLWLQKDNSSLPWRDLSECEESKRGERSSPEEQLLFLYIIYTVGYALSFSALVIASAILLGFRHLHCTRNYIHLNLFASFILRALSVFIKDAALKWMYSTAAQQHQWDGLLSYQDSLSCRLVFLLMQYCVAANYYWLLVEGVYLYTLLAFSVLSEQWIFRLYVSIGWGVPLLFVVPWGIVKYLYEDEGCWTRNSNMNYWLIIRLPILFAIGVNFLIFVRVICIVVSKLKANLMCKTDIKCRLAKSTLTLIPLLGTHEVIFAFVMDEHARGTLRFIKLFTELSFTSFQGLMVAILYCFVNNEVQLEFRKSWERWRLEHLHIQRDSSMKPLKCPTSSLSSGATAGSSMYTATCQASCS

Turning to `CC[C@H](C)[C@H](NC(=O)[C@H](CO)NC(=O)[C@H](Cc1ccc(O)cc1)NC(=O)[C@H](CC(=O)O)NC(=O)[C@H](CO)NC(=O)[C@@H](NC(=O)[C@H](Cc1ccccc1)NC(=O)[C@@H](NC(=O)CNC(=O)[C@H](CCC(=O)O)NC(=O)C(C)(C)NC(=O)[C@@H](N)Cc1ccc(O)cc1)[C@@H](C)O)[C@@H](C)O)C(=O)NC(C)(C)C(=O)N[C@@H](CC(C)C)C(=O)N[C@@H](CC(=O)O)C(=O)N[C@@H](CCCCN)C(=O)N[C@@H](CCCCNC(=O)COCCOCCNC(=O)COCCOCCNC(=O)CC[C@H](NC(=O)CCCCCCCCCCCCCCCCC(=O)O)C(=O)O)C(=O)N[C@@H](C)C(=O)N[C@@H](CCC(N)=O)C(=O)N[C@@H](CCCNC(=N)N)C(=O)N[C@@H](C)C(=O)N[C@@H](Cc1ccccc1)C(=O)N[C@H](C(=O)N[C@@H](CCC(=O)O)C(=O)N[C@@H](Cc1c[nH]c2ccccc12)C(=O)N[C@@H](CC(C)C)C(=O)N[C@@H](CC(C)C)C(=O)N[C@@H](C)C(=O)N[C@@H](CCC(N)=O)C(=O)NCC(=O)N1CCC[C@H]1C(=O)N[C@@H](CO)C(=O)N[C@@H](CO)C(=O)NCC(=O)N[C@@H](C)C(=O)N1CCC[C@H]1C(=O)N1CCC[C@H]1C(=O)N1CCC[C@H]1C(=O)N[C@@H](CO)C(N)=O)C(C)C` [Compound 11] (H-Y[Aib]EGTFTSDYSI[Aib]LDKK([AEEA-AEEA-γGlu-C18 diacid])AQRAFVEWLLAQGPSSGAPPPS-NH2), the negative logarithm of the EC50 (pEC50) – broadly, the EC50 on a negative log10 scale, so that one unit is a factor of ten – at human GLP-1 R (setting [1]) was 10.89; at human GLP-1 R (setting [2]), 10.89; on human GIP R (setting [3]), 11.33; at human GIP R (setting [4]), 11.30; on human GIP R (setting [5]), 11.30.

Regarding `CC[C@H](C)[C@H](NC(=O)[C@H](CO)NC(=O)[C@H](Cc1ccc(O)cc1)NC(=O)[C@H](CC(=O)O)NC(=O)[C@H](CO)NC(=O)[C@@H](NC(=O)[C@H](Cc1ccccc1)NC(=O)[C@@H](NC(=O)CNC(=O)[C@H](CCC(=O)O)NC(=O)C(C)(C)NC(=O)[C@@H](N)Cc1ccc(O)cc1)[C@@H](C)O)[C@@H](C)O)C(=O)N[C@@H](Cc1ccc(O)cc1)C(=O)N[C@@H](CC(C)C)C(=O)N[C@@H](CC(=O)O)C(=O)N[C@@H](CCCCN)C(=O)N[C@@H](CCCCNC(=O)COCCOCCNC(=O)COCCOCCNC(=O)CC[C@H](NC(=O)CCCCCCCCCCCCCCCCC(=O)O)C(=O)O)C(=O)N[C@@H](C)C(=O)N[C@@H](CCC(N)=O)C(=O)N[C@@H](CCCNC(=N)N)C(=O)N[C@@H](C)C(=O)N[C@@H](Cc1ccccc1)C(=O)N[C@H](C(=O)N[C@@H](CC(N)=O)C(=O)N[C@@H](Cc1c[nH]c2ccccc12)C(=O)N[C@@H](CC(C)C)C(=O)N[C@@H](CC(C)C)C(=O)N[C@@H](C)C(=O)NC(C)(C)C(=O)N[C@@H](CCCCN)C(N)=O)C(C)C` [Compound 12] (H-Y[Aib]EGTFTSDYSIYLDKK([AEEA-AEEA-γGlu-C18 diacid])AQRAFVNWLLA[Aib]K-NH2), the pEC50 is 10.80 on human GLP-1 R (setting [1]), 10.77 on human GLP-1 R (setting [2]), 10.96 on human GIP R (setting [3]) and 10.92 at human GIP R (setting [4]).

Regarding `CC[C@H](C)[C@H](NC(=O)[C@H](Cc1ccccc1)NC(=O)[C@H](CCC(=O)O)NC(=O)[C@H](CCCCN)NC(=O)[C@H](C)NC(=O)[C@H](C)NC(=O)[C@H](CCCCNC(=O)COCCOCCNC(=O)COCCOCCNC(=O)CC[C@H](NC(=O)CCCCCCCCCCCCCCCCC(=O)O)C(=O)O)NC(=O)[C@H](CCC(=O)O)NC(=O)[C@H](CC(=O)O)NC(=O)[C@H](CC(C)C)NC(=O)[C@H](Cc1ccc(O)cc1)NC(=O)[C@@H](NC(=O)[C@H](CO)NC(=O)[C@H](Cc1ccc(O)cc1)NC(=O)[C@H](CC(=O)O)NC(=O)[C@H](CO)NC(=O)[C@@H](NC(=O)[C@H](Cc1ccccc1)NC(=O)[C@@H](NC(=O)CNC(=O)[C@H](CCC(=O)O)NC(=O)C(C)(C)NC(=O)[C@@H](N)Cc1ccc(O)cc1)[C@@H](C)O)[C@@H](C)O)[C@@H](C)CC)C(=O)N[C@@H](CCC(=O)O)C(=O)N[C@@H](Cc1c[nH]c2ccccc12)C(=O)N[C@@H](CC(C)C)C(=O)N[C@@H](CCC(=O)O)C(=O)N[C@@H](CO)C(=O)N[C@@H](C)C(N)=O` [Compound 13], the pEC50 at human GLP-1 R (setting [6]) was 10.24; on human GIP R (setting [5]) it was 9.82.

With `CC[C@H](C)[C@H](NC(=O)[C@H](CO)NC(=O)[C@H](Cc1ccc(O)cc1)NC(=O)[C@H](CC(=O)O)NC(=O)[C@H](CO)NC(=O)[C@@H](NC(=O)[C@H](Cc1ccccc1)NC(=O)[C@@H](NC(=O)CNC(=O)[C@H](CCC(=O)O)NC(=O)C(C)(C)NC(=O)[C@@H](N)Cc1ccc(O)cc1)[C@@H](C)O)[C@@H](C)O)C(=O)N[C@@H](C)C(=O)N[C@@H](CC(C)C)C(=O)N[C@@H](CC(=O)O)C(=O)N[C@@H](CCCCN)C(=O)N[C@@H](CCCCNC(=O)COCCOCCNC(=O)COCCOCCNC(=O)CC[C@H](NC(=O)CCCCCCCCCCCCCCCCC(=O)O)C(=O)O)C(=O)N[C@@H](C)C(=O)N[C@@H](CCC(N)=O)C(=O)N[C@@H](CCCNC(=N)N)C(=O)N[C@@H](C)C(=O)N[C@@H](Cc1ccccc1)C(=O)N[C@H](C(=O)N[C@@H](CC(N)=O)C(=O)N[C@@H](Cc1c[nH]c2ccccc12)C(=O)N[C@@H](CC(C)C)C(=O)N[C@H](C(=O)N[C@@H](C)C(=O)NC(C)(C)C(=O)N[C@@H](CCCCN)C(=O)N1CCC[C@H]1C(=O)N[C@@H](CO)C(=O)N[C@@H](CO)C(=O)NCC(=O)N[C@@H](C)C(=O)N1CCC[C@H]1C(=O)N1CCC[C@H]1C(=O)N1CCC[C@H]1C(=O)N[C@@H](CO)C(N)=O)C(C)C)C(C)C` [Compound 14], the pEC50 on human GLP-1 R (setting [1]) was 11.10; at human GLP-1 R (setting [6]), 11.10; at human GIP R (setting [3]) it was 11.19; on human GIP R (setting [5]) it was 11.22.

With `CC[C@H](C)[C@H](NC(=O)[C@H](Cc1ccccc1)NC(=O)[C@H](CCC(=O)O)NC(=O)[C@H](CCCCN)NC(=O)[C@H](C)NC(=O)[C@H](C)NC(=O)[C@H](CCCCNC(=O)COCCOCCNC(=O)COCCOCCNC(=O)CC[C@H](NC(=O)CCCCCCCCCCCCCCCCC(=O)O)C(=O)O)NC(=O)[C@H](CCC(=O)O)NC(=O)[C@H](CC(=O)O)NC(=O)[C@H](CC(C)C)NC(=O)[C@H](Cc1ccc(O)cc1)NC(=O)[C@@H](NC(=O)[C@H](CO)NC(=O)[C@H](Cc1ccc(O)cc1)NC(=O)[C@H](CC(=O)O)NC(=O)[C@H](CO)NC(=O)[C@@H](NC(=O)[C@H](Cc1ccccc1)NC(=O)[C@@H](NC(=O)CNC(=O)[C@H](CCC(=O)O)NC(=O)C(C)(C)NC(=O)[C@@H](N)Cc1ccc(O)cc1)[C@@H](C)O)[C@@H](C)O)[C@@H](C)CC)C(=O)N[C@@H](CCC(=O)O)C(=O)N[C@@H](Cc1c[nH]c2ccccc12)C(=O)N[C@@H](CC(C)C)C(=O)N[C@@H](CCC(=O)O)C(=O)N[C@@H](CO)C(=O)N[C@@H](C)C(N)=O` [Compound 14], the figures for the negative-log EC50 (pEC50) at human GLP-1 R (setting [2]) and at human GIP R (setting [4]) were 10.25 and 9.83, respectively.

For `CC[C@H](C)[C@H](NC(=O)[C@H](CO)NC(=O)[C@H](Cc1ccc(O)cc1)NC(=O)[C@H](CC(=O)O)NC(=O)[C@H](CO)NC(=O)[C@@H](NC(=O)[C@H](Cc1ccccc1)NC(=O)[C@@H](NC(=O)CNC(=O)[C@H](CCC(=O)O)NC(=O)C(C)(C)NC(=O)[C@@H](N)Cc1ccc(O)cc1)[C@@H](C)O)[C@@H](C)O)C(=O)N[C@@H](C)C(=O)N[C@@H](CC(C)C)C(=O)N[C@@H](CC(=O)O)C(=O)N[C@@H](CCCCN)C(=O)N[C@@H](CCCCNC(=O)COCCOCCNC(=O)COCCOCCNC(=O)CC[C@H](NC(=O)CCCCCCCCCCCCCCCCC(=O)O)C(=O)O)C(=O)N[C@@H](C)C(=O)N[C@@H](CCC(N)=O)C(=O)N[C@@H](CCCNC(=N)N)C(=O)N[C@@H](C)C(=O)N[C@@H](Cc1ccccc1)C(=O)N[C@H](C(=O)N[C@@H](CC(N)=O)C(=O)N[C@@H](Cc1c[nH]c2ccccc12)C(=O)N[C@@H](CC(C)C)C(=O)N[C@H](C(=O)N[C@@H](C)C(=O)NC(C)(C)C(=O)N[C@@H](CCCCN)C(=O)N1CCC[C@H]1C(=O)N[C@@H](CO)C(=O)N[C@@H](CO)C(=O)NCC(=O)N[C@@H](C)C(=O)N1CCC[C@H]1C(=O)N1CCC[C@H]1C(=O)N1CCC[C@H]1C(=O)N[C@@H](CO)C(N)=O)C(C)C)C(C)C` [Compound 15], the results for the pEC50 at human GLP-1 R (setting [2]) and at human GIP R (setting [4]) were 11.10 and 11.22, respectively.
